# Laboratory results published in US4652637A, “Steroidal glycolipids” (priority 1985, dated 1987).
# Experiments:
# [1] = test system: Pseudomonas aeruginosa (Immunotype 1); assay: In vivo protection against Pseudomonas aeruginosa infection in cyclophosphamide-immunosuppressed CFl female mice (LD50 / protective index); conditions: CY-treated mice, LD50 (CY + test compound) / LD50 (CY alone); for Protective Index (log): Table 3, Pseudomonas aeruginosa, dose and route not given; for P.I. (log): PA, sub cutaneous
# Method: (§1) Groups of 15-20 CFl female mice (Charles River Breeding, Cambridge, MA) weighing 22-28 gm were injected intraperitoneally (i.p.) with cyclophosphamide (Cytoxan; CY) at 250 mg per kg body weight. One to two hours later they were typically injected again with the test material by the route specified. Four days later, the mice were divided into groups of five, each of which were injected i.p. with a different dilution of a suspension of Pseudomonas aeruginosa (Immunotype 1). The number of survivors was determined periodically and an estimate was made of the number of CFU of Pseudomonas organisms necessary to cause 50% lethality by the cumulative method of L. J. Reed and H. Muench (Am. J. Hygeine 27 (1938) 493-497). A protective index (P.I.) was defined as the LD50 for the mice receiving cyclophosphamide and the test compound divided by the LD50 for the mice receiving cyclophosphamide alone. All control mice were injected with aqueous vehicle in the same route and schedule as the test animals.
# (§2) All compounds for dosing were suspended in a sterile medium referred to as "aqueous vehicle" which contains 0.9% sodium chloride, 0.5% carboxymethyl cellulose, 0.4% Tween 80, and 0.9% benzyl alcohol unless otherwise stated. Test materials were evaluated via subcutaneous (s.c.), i.p., intramuscular (i.m.), orally (p.o.). and intravenous (i.v.) routes of administration. The initial test dose was 40 mg per kg per mouse, with each active compound subsequently titrated below this level.
# (§3) All bacteria were inoculated i.p. to induce infection in the in vivo experiments. Candida albicans, however, was administered i.v. Bacteria cultures were harvested in the log phase, washed with phosphate buffered saline (PBS, and resuspended in PBS containing 10% glycerol for freezing at -70° C. in 1 ml aliquots. The number of […] (cfu's) was determined before and after freezing. Frozen cultures were routinely thawed and diluted in sterile PBS just prior to inoculation. Viable cell counts were routinely done on thawed cultures the day of challenge to determine the number of cfu's. Candida albicans was stored in distilled water at room temperature. Viable cell counts were determined the day of testing.
# (§4) The testing and results of 6-(5-cholesten-3β-yloxy)hexyl-1-thio-β-D-mannopyranoside (Example 2) against various orgaisms is shown in Table 2.
# Candida albicans = assay: In vivo protection against Candida albicans infection in cyclophosphamide-immunosuppressed mice (LD50 / protective index); conditions: CA i.v., CY-treated mice, sub cutaneous, LD50 (CY + test compound) / LD50 (CY alone)
# Method: as §1
# as §2, with “The initial test dose was 40 mg per kg per mouse, with each active compound subsequently titrated below this level.” left out
# as §3, with “testing. […]” for “testing.”
# Staphylococcus aureus = assay: In vivo protection against Staphylococcus aureus infection in cyclophosphamide-immunosuppressed mice (LD50 / protective index); conditions: SA, CY-treated mice, sub cutaneous, LD50 (CY + test compound) / LD50 (CY alone)
# Method: as §1, §2, §3, §4
Compound,Protective Index (log) [1],also measured
"CC(C)CCC[C@@H](C)[C@H]1CC[C@H]2[C@@H]3CC=C4C[C@@H](OCCCCCCS[C@H]5O[C@H](CO)[C@@H](O)[C@H](O)[C@@H]5O)CC[C@]4(C)[C@H]3CC[C@]12C [Example 1, 6-(5-Cholesten-3β-yloxy)hexyl 1-thio-α-D-mannopyranoside]",1.5 log,–
"CC(C)CCC[C@@H](C)[C@H]1CC[C@H]2[C@@H]3CC=C4C[C@@H](OCCCCCCS[C@@H]5O[C@H](CO)[C@@H](O)[C@H](O)[C@@H]5O)CC[C@]4(C)[C@H]3CC[C@]12C [Example 2, 6-(5-Cholesten-3β-yloxy)hexyl 1-thio-β-D-mannopyranoside]",4.5 log,P.I. (log) (Candida albicans; 10 mg/kg): 0.67 log; P.I. (log) (Candida albicans; 20 mg/kg): 0.81 log; P.I. (log) (Candida albicans; 40 mg/kg): 1 log; P.I. (log) ([1]; 10 mg/kg): 2.75 log; P.I. (log) ([1]; 20 mg/kg): 3.75 log; P.I. (log) ([1]; 40 mg/kg): 4.33 log; P.I. (log) ([1]; 80 mg/kg): 4.66 log; P.I. (log) (Staphylococcus aureus; 5 mg/kg): 0.99 log; P.I. (log) (Staphylococcus aureus; 10 mg/kg): 1.47 log; P.I. (log) (Staphylococcus aureus; 20 mg/kg): 1.83 log; P.I. (log) (Staphylococcus aureus; 40 mg/kg): 2.66 log
"CC(C)CCC[C@@H](C)[C@H]1CC[C@H]2[C@@H]3CC=C4C[C@@H](OCCCCCCS[C@@H]5O[C@@H](C)[C@@H](O)[C@@H](O)[C@@H]5O)CC[C@]4(C)[C@H]3CC[C@]12C [Example 3, 6-(5-Cholesten-3β-yloxy)hexyl 1-thio-α-L-fucopyranoside]",2.8 log,–
"CC(C)CCC[C@@H](C)[C@H]1CC[C@H]2[C@@H]3CC=C4C[C@@H](OCCCCCCS[C@H]5O[C@@H](C)[C@@H](O)[C@@H](O)[C@@H]5O)CC[C@]4(C)[C@H]3CC[C@]12C [Example 4, 6-(5-Cholesten-3β-yloxy)hexyl 1-thio-β-L-fucopyranoside]",1.3 log,–
"CC(C)CCC[C@@H](C)[C@H]1CC[C@H]2[C@@H]3CC=C4C[C@@H](OCCOCCS[C@@H]5O[C@H](CO)[C@@H](O)[C@H](O)[C@@H]5O)CC[C@]4(C)[C@H]3CC[C@]12C [Example 5, 2-(2-(5-Cholesten-3β-yloxy)ethoxy)ethyl 1-thio-β-D-mannopyranoside]",1.7 log,–
"CC[C@H](C=C[C@@H](C)[C@H]1CC[C@H]2[C@@H]3CC=C4C[C@@H](OCCCCCCS[C@@H]5O[C@H](CO)[C@@H](O)[C@H](O)[C@@H]5O)CC[C@]4(C)[C@H]3CC[C@]12C)C(C)C [Example 6, 6-(Stigmasta-5,22-dien-3β-yloxy)hexyl 1-thio-β-D-mannopyranoside]",2.0 log,–
"CC(=O)[C@H]1CC[C@H]2[C@@H]3CC=C4C[C@@H](OCCCCCCS[C@@H]5O[C@H](CO)[C@@H](O)[C@H](O)[C@@H]5O)CC[C@]4(C)[C@H]3CC[C@]12C [Example 7, 6-(Pregn-5-en-20-one-3β-yloxy)hexyl 1-thio-βD-mannopyranoside]",3.5 log,–
"COC(=O)[C@H]1CC[C@H]2[C@@H]3CC=C4C[C@@H](OCCCCCCS[C@@H]5O[C@H](CO)[C@@H](O)[C@H](O)[C@@H]5O)CC[C@]4(C)[C@H]3CC[C@]12C [Example 8, 6-(17β-Carbomethoxy-androst-5-en-3β-yloxy)hexyl 1-thio-β-D-mannopyranoside]",2.5 log,–
"C[C@]12CC[C@H]3[C@@H](CC=C4C[C@@H](OCCCCCCS[C@@H]5O[C@H](CO)[C@@H](O)[C@H](O)[C@@H]5O)CC[C@@]43C)[C@@H]1CC[C@@H]2C(N)=O [Example 9, 6-(17β-Carbamido-androst-5-en-3β-yloxy)hexyl 1-thio-β-D-mannopyranoside]",2.5 log,–
"CC(O)[C@H]1CC[C@H]2[C@@H]3CC=C4C[C@@H](OCCCCCCS[C@@H]5O[C@H](CO)[C@@H](O)[C@H](O)[C@@H]5O)CC[C@]4(C)[C@H]3CC[C@]12C (stereo partly drawn) [Example 10, 6-(Pregn-5-en-20-ol-3β-yloxy)hexyl 1-thio-β-D-mannopyranoside]",1.3 log,–
"CC(=O)N[C@@H](C)[C@H]1CC[C@H]2[C@@H]3CC=C4C[C@@H](OCCCCCCS[C@@H]5O[C@H](CO)[C@@H](O)[C@H](O)[C@@H]5O)CC[C@]4(C)[C@H]3CC[C@]12C [Example 11, 6-(20S-Acetamido-pregn-5-en-3β-yloxy)hexyl 1-thio-β-D-mannopyranoside]",3.0 log,–
"CC(=O)N[C@H](C)[C@H]1CC[C@H]2[C@@H]3CC=C4C[C@@H](OCCCCCCS[C@@H]5O[C@H](CO)[C@@H](O)[C@H](O)[C@@H]5O)CC[C@]4(C)[C@H]3CC[C@]12C [Example 12, 6-(20R-Acetamido-pregn-5-en-3β-yloxy)hexyl 1-thio-β-D-mannopyranoside]",2.6 log,–
